Consider ten molecules from PubChem BioAssay (NCI).

Some test systems named below: HCC-2998 colon; OVCAR-8 ovarian; 786-0 renal; SNB-19 CNS; SK-OV-3 ovarian; MALME-3M melanoma; DU-145 prostate; HCT-15 colon; MOLT-4 leukemia; ACHN renal.
What all share (assay): growth of human tumour cells (NCI), 48 h

Several values for one entry are separate records, joined by “and”; a condition that tells them apart may be missing. Equal entries are not always repeated.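 The compound was tested at five concentrations on cells cultured in 96-well plates, with a 48-hour exposure period. At the GI50, growth is halved. TGI denotes the concentration required for complete inhibition of growth.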 Some results are limits rather than exact numbers.

For `O=C(Nc1ccc(CN2CCOCC2)cc1)c1[nH]ncc1Nc1ncnc2sccc12`, the GI50 was 0.68 µM with HCC-2998 colon; 0.522 µM with OVCAR-8 ovarian; 0.48 µM in the assay with 786-0 renal; 0.703 µM with SNB-19 CNS; 0.103 µM in the assay on SK-OV-3 ovarian; 1.83 µM in the assay with MALME-3M melanoma. The GI50 in the assay with DU-145 prostate was 0.382 µM; in the assay on HCT-15 colon, 0.277 µM. Further, the TGI in the assay with HCC-2998 colon is 5.08 µM; in the assay with OVCAR-8 ovarian it was 22.4 µM; with 786-0 renal it was 7.96 µM; with SNB-19 CNS, more than 100 µM; in the assay with SK-OV-3 ovarian, more than 100 µM; in the assay on MALME-3M melanoma, 8.61 µM. The figures for the TGI in the assay with DU-145 prostate and with HCT-15 colon were 15.5 µM and 16.7 µM, respectively.
Turning to `O=C(Nc1cccc(Oc2nnc(Cl)c3ccccc23)c1)Nc1ccc(Cl)c(C(F)(F)F)c1`, the GI50 with HCC-2998 colon was 0.872 µM; in the assay on OVCAR-8 ovarian, 1.3 µM; with MOLT-4 leukemia it was 0.494 µM; in the assay with 786-0 renal, 0.767 µM; with SNB-19 CNS it was 1.26 µM; in the assay with SK-OV-3 ovarian it was 2.66 µM. Further, the GI50 in the assay with MALME-3M melanoma is 0.968 µM; with DU-145 prostate, 1.27 µM; in the assay with HCT-15 colon, 0.765 µM; with ACHN renal, 0.711 µM. For the same molecule, the TGI in the assay on HCC-2998 colon turned out to be 3.48 µM; in the assay on OVCAR-8 ovarian, 9.5 µM; in the assay on MOLT-4 leukemia, 4.18 µM; in the assay with 786-0 renal, 3.01 µM; in the assay with SNB-19 CNS, 4.9 µM; in the assay on SK-OV-3 ovarian, 6.7 µM. The TGI in the assay with MALME-3M melanoma is 4 µM; in the assay on DU-145 prostate, 4.08 µM; in the assay with HCT-15 colon, 3.53 µM; with ACHN renal, 3.8 µM.
On to `O=[N+]([O-])c1ccc2c(N3CCC(CCCC4CCN(c5ncnc6cc([N+](=O)[O-])ccc56)CC4)CC3)ncnc2c1`, for which the GI50 in the assay with HCC-2998 colon is more than 87.1 µM; in the assay on OVCAR-8 ovarian it was 1.62 µM; with MOLT-4 leukemia, 24.8 µM; in the assay with 786-0 renal, more than 46 µM; in the assay with SNB-19 CNS, more than 42.3 µM; with SK-OV-3 ovarian it was more than 46.3 µM. Moreover, the GI50 in the assay with MALME-3M melanoma is more than 59.7 µM; with DU-145 prostate, more than 96.2 µM; in the assay on HCT-15 colon, more than 50.6 µM; in the assay with ACHN renal, more than 48 µM. The TGI with HCC-2998 colon was more than 100 µM; with OVCAR-8 ovarian, more than 100 µM; in the assay on MOLT-4 leukemia it was more than 100 µM; in the assay on 786-0 renal it was more than 86.2 µM; in the assay on SNB-19 CNS, more than 100 µM; with SK-OV-3 ovarian it was more than 100 µM. Further, the TGI in the assay on MALME-3M melanoma was more than 92.1 µM; with DU-145 prostate, more than 100 µM; in the assay on HCT-15 colon, more than 100 µM; in the assay on ACHN renal, more than 100 µM.
With `O=C1C2=Nc3ccccc3C(O)N2c2ccccc21` (centres undefined), the TGI in the assay with HCC-2998 colon was more than 94.3 µM; with OVCAR-8 ovarian, more than 100 µM; with MOLT-4 leukemia it was more than 100 µM; in the assay on 786-0 renal it was more than 100 µM; with SNB-19 CNS it was more than 100 µM; with SK-OV-3 ovarian it was more than 100 µM. Further, the TGI in the assay with MALME-3M melanoma is 29.8 µM; with DU-145 prostate it was more than 100 µM; in the assay with HCT-15 colon, more than 100 µM; in the assay on ACHN renal, more than 100 µM.
For the molecule `Cc1ccc(Nc2n[nH]c(=S)s2)cc1`, the TGI in the assay on HCC-2998 colon, with OVCAR-8 ovarian, in the assay on MOLT-4 leukemia, in the assay on 786-0 renal, in the assay with SNB-19 CNS and with SK-OV-3 ovarian was more than 100 µM throughout. The TGI in the assay on MALME-3M melanoma, in the assay on DU-145 prostate, in the assay with HCT-15 colon and in the assay on ACHN renal was more than 100 µM each time.
Take `CCOC(=O)c1c2c(n(Cc3ccccc3)c1C)-c1ccccc1C(=O)C2=O`: the GI50 with HCC-2998 colon is 6.35 µM; in the assay on OVCAR-8 ovarian, 14.9 µM; in the assay with 786-0 renal, 6.35 µM; in the assay on SNB-19 CNS it was 15.4 µM; in the assay with SK-OV-3 ovarian, 19.8 µM; in the assay on MALME-3M melanoma, 13.7 µM. Further, the GI50 was 4.21 µM with DU-145 prostate, 15.3 µM with HCT-15 colon and 12.9 µM in the assay on ACHN renal. Moreover, the TGI with HCC-2998 colon was 19.6 µM; in the assay on OVCAR-8 ovarian, 43.7 µM; in the assay with 786-0 renal, 19.3 µM; in the assay with SNB-19 CNS, 29.4 µM; in the assay with SK-OV-3 ovarian, 37.2 µM; in the assay on MALME-3M melanoma, 29 µM. Further, the TGI in the assay on DU-145 prostate was 12.4 µM; in the assay on HCT-15 colon, 30.8 µM; in the assay on ACHN renal, 30.2 µM.
On to `CNC(=O)c1ccc2cc(C3(O)CCn4cncc43)ccc2c1` (centres undefined), for which the GI50 with HCC-2998 colon, with OVCAR-8 ovarian, in the assay on MOLT-4 leukemia, in the assay with 786-0 renal, in the assay on SNB-19 CNS and in the assay on SK-OV-3 ovarian was more than 100 µM in each case. Moreover, the GI50 in the assay on MALME-3M melanoma, in the assay on DU-145 prostate, in the assay with HCT-15 colon and in the assay with ACHN renal was more than 100 µM in each case. Also, the TGI with HCC-2998 colon, in the assay on OVCAR-8 ovarian, with MOLT-4 leukemia, in the assay with 786-0 renal, in the assay on SNB-19 CNS and in the assay with SK-OV-3 ovarian was more than 100 µM throughout. Further, the TGI in the assay with MALME-3M melanoma, with DU-145 prostate, with HCT-15 colon and in the assay with ACHN renal was more than 100 µM in each case.
Regarding `CN(C)CCNC(=O)Cn1cc([N+](=O)[O-])c(=O)c2ccccc21`, the TGI in the assay on HCC-2998 colon, in the assay on OVCAR-8 ovarian, in the assay on MOLT-4 leukemia, in the assay on 786-0 renal, in the assay with SNB-19 CNS and with SK-OV-3 ovarian was more than 100 µM throughout. Also, the TGI with MALME-3M melanoma, in the assay with DU-145 prostate, in the assay with HCT-15 colon and in the assay on ACHN renal was more than 100 µM each time.
`C/C1=C/C2=CC(C)C[C@@H]2C(=O)[C@]2(C)C(=O)CC(C)(C)[C@H]2CC1=O` (some centres undefined): the TGI with HCC-2998 colon, with OVCAR-8 ovarian, in the assay on MOLT-4 leukemia, in the assay with 786-0 renal, with SNB-19 CNS and in the assay on SK-OV-3 ovarian was more than 50 µM throughout. The TGI in the assay on MALME-3M melanoma, in the assay on DU-145 prostate, in the assay on HCT-15 colon and in the assay with ACHN renal was more than 50 µM in each case.
Take `CN(C)CCOc1ccc(/C(=C(/CCCl)c2ccccc2)c2ccccc2)cc1`: the GI50 is 0.776 µM in the assay with HCC-2998 colon; 1.08 µM with OVCAR-8 ovarian; 1.12 µM in the assay with MOLT-4 leukemia; 0.906 µM with 786-0 renal; 1.85 µM in the assay with SNB-19 CNS; 1.62 µM in the assay on SK-OV-3 ovarian. Moreover, the GI50 is 0.976 µM in the assay with MALME-3M melanoma, 1.88 µM in the assay on DU-145 prostate, 1.95 µM in the assay with HCT-15 colon and 1.8 µM in the assay with ACHN renal. Further, the TGI in the assay with SNB-19 CNS is 22.6 µM and 28.5 µM; with SK-OV-3 ovarian it was 5.07 µM; with DU-145 prostate, 18.1 µM and 33.2 µM; in the assay with HCT-15 colon it was 7.87 µM and 28.1 µM; in the assay on ACHN renal, 6.55 µM and 31.9 µM.
